The record followed here is patent US20160175221A1, “COMPOSITION FOR PREVENTING SKIN AGING CONTAINING ALOESIN OR DERIVATIVE THEREOF” (UNIVERA INC., priority 2013, published 2016).

In one data set the test system is MMP-1. Kind of data set: MMP-1 level in medium by ELISA (Human Total MMP-1 Kit). In kind it is cell-based. As to conditions: NHDFs after UVB irradiation (144 mJ/cm^2), 72 hours, FIG. 2. How it is done:
(§1) The concentrations of MMP-1 and PIP in the medium were determined using commercially available enzyme-linked immunosorbent assay (ELISA) kits (Human Total MMP-1 Kit, R&D Systems, Inc., Minneapolis, Minn., USA and procollagen type I C-peptide enzyme immunoassay (EIA) kit, Takara Inc., Shiga, Japan) according to the manufacturer's instructions. Each sample was analyzed in triplicate.

Data set [1] concerns type I procollagen peptide (PIP). Kind of data set: PIP level in medium by procollagen type I C-peptide EIA kit. Type of data set: cell-based, human. As to conditions: 0.01 μg/ml and 0.1 μg/ml. How it is done: as §1
In the next data set the test system is MMP-1 mRNA. Nature of the data set: RT-PCR of MMP-1 mRNA in UVB irradiated fibroblasts. In kind it is cell-based, human. As to conditions: NHDFs after UVB irradiation, 0.01 μg/ml, 0.1 μg/ml and 1 μg/ml, 24 hours; ratio to GAPDH; FIG. 4. How it is done:
(§2) After UVB irradiation, separation of RNA from aloesin treated normal human dermal fibroblasts (NHDFs) was performed using TRIZOL reagent (Invitrogen Life Technologies, Carlsbad, […]) according to the manufacturer's instructions. RNA (5 μg) was subjected to reverse transcription using 200 units of reverse transcriptase and 0.5 μg/μl of oligo-(dT) 15 primer (Bioneer Inc., Korea). The reaction was performed at 42° C. for 60 minutes, and then terminated by heating at 94° C. for five minutes. PCR amplification of cDNA template was performed using PCR premix (Bioneer Inc.) and the following primer pairs: MMP-1, forward 5′-ATTCTACTGATATCGGGGCTTTGA-3′, reverse 5′-ATGTCCTTGGGGTATCCGTGTAG-3′; procollagen type I, forward 5′-CTCGAGGTGGACACCACCCT-3′, reverse 5′-CAGCTGGATGGCCACATCGG-3′; and glyceraldehydes-3-phosphate […] (GAPDH), sense 5′-ACCACAGTCCATGCCATCAC-3′, antisense 5′-CCACCACCCTGTTGCTGTAC-3′. […]
(§3) To investigate mRNA levels of aloesin treated cells (24 hours after treatment), the concentration of MMP-1 and procollagen type I was measured in UVB irradiated normal human dermal fibroblasts. To quantify the data, the ratio of MMP-1/GAPDH and procollagen type I/GAPDH in normal human dermal fibroblasts was randomly set to 1.0, based on band signal intensity.

A further data set deals with procollagen type I mRNA. Nature of the data set: RT-PCR of procollagen type I mRNA in UVB irradiated fibroblasts. In kind it is cell-based, human. As to conditions: NHDFs after UVB irradiation, 0.01 μg/ml, 0.1 μg/ml and 1 μg/ml, 24 hours; ratio to GAPDH; FIG. 4. How it is done: as §2, §3
Data set [2] deals with normal human dermal fibroblasts (NHDFs). Nature of the data set: MTT colorimetric assay, cytotoxicity of treated cells. As to conditions: before and after UVB irradiation, 0.01 and 0.1 μg/ml before, 0.1 and 1 μg/ml after, 72 hours after treatment, FIG. 1.
Setting [3] is: NHDFs after UVB irradiation, 72 hours, FIG. 3b.
The mark [4] stands for this setting: NHDFs prior to UVB irradiation, FIG. 3a.

As to `COc1cc(C)c2c(=O)cc(C[C@H](C)O)oc2c1[C@@H]1O[C@H](CO)[C@@H](O)[C@H](O)[C@H]1OC(=O)/C=C/c1ccc(O)cc1` [isoaloeresin D], the MMP-1 levels entry in the data set with MMP-1 (1 μg/ml) was “significantly decreased MMP-1 levels”. In addition, the PIP levels result in data set [1] (setting [3]) and in data set [1] (setting [4]) was “significantly increased PIP levels” throughout.
For the compound `CC(=O)Cc1cc(=O)c2c(C)cc(O)c([C@@H]3O[C@H](CO)[C@@H](O)[C@H](O)[C@H]3OC(=O)/C=C/c3ccc(O)cc3)c2o1` [aloeresin A], the PIP levels entry in data set [1] (setting [3]) and in data set [1] (setting [4]) was “significantly increased PIP levels” in each case.
For the compound `CC(=O)Cc1cc(=O)c2c(C)cc(O)c([C@@H]3O[C@H](CO)[C@@H](O)[C@H](O)[C@H]3O)c2o1` [aloesin], the MMP-1 levels result in the data set on MMP-1 (0.1 μg/ml) is “significantly decreased MMP-1 levels”. Besides, the PIP levels entry in data set [1] (setting [3]) and in data set [1] (setting [4]) was “significantly increased PIP levels” throughout. Further, the “mRNA expression of MMP-1” value with MMP-1 mRNA was “decreased mRNA expression of MMP-1”. Besides, the “mRNA expression of procollagen type I” value in the data set on procollagen type I mRNA is “significantly increased mRNA expression of procollagen type I”. For the same compound, the cytotoxicity entry in data set [2] is listed as “decreased cytotoxicity”.
